Reference: US20240239813A1, “KRAS INHIBITORS AND PHARMACEUTICAL USES THEREOF” (RISEN (SUZHOU) PHARMA TECH CO., LTD., priority 2022, published 2024)

Legend:
[1] = Microsomal stability assay, mouse liver microsomes; format: in vitro ADME; conditions: CD-1, pooled mouse liver microsomes, 0.5 mg/mL protein
Method: (§1) Test results from this assay were used to determine the metabolic liabilities of test compounds and allow focus on the improvement of drug candidates through structure-activity relationships. Pooled mouse/rat/human liver microsomes were used for this assay
(§2) In vitro mouse (CD-1, BioIVT)/rat (SD, RILD)/human (Corning) liver microsomal suspensions at 0.5 mg/mL protein and 1.3 mM NADPH, 3.3 mM MgCl2 were pre incubated at 37° C. for 3 mins prior to addition of 0.1 mM test compound solution to give a final incubation concentration of 1 μM. Samples were incubated for 0, 15, 30, 60 minutes at 37° C. on a shaker (the positive control substance was cultured for 0 or 60 minutes). At the end of each incubation time both incubated and control samples were quenched with ice-cold stop solution containing internal standard. All samples were mixed by a plate shaker at 800 rpm for 5 minutes, then centrifuged at 4100 rpm for 15 minutes at 4° C. to precipitate protein. Supernatant was transferred to another 96-well plate, dilution solution was added to each supernatant well, and then each bioanalysis plate was sealed. The samples were mixed by plate shaker at 800 rpm for 5 minutes and then centrifuged at 4° C., 4100 rpm for 5 minutes. All samples were stored at 4° C. before LC-MS/MS analysis.
(§3) The peak area ratio was converted to the remaining percentages (% Remaining) using the following formula: […]
(§4) where % Remaining is the compound ratio (compound peak area/internal standard peak area) as a percentage of the 0 minute time point.
(§5) The ln remaining percent of test articles were plotted against time and the gradient of the line determined; the gradient was converted to elimination rate constant by using the following formula:
(§6) Elimination rate constant(ke)=−gradient
(§7) Half time (T1/2) was determined using following formula: […]
(§8) Hepatic intrinsic clearance (CLint(liver)) was determined by using the following formulas: […]
(§9) The Intrinsic clearance of selected compounds is depicted in Table 6.

[2] = Microsomal stability assay, rat liver microsomes; format: in vitro ADME; conditions: SD, pooled rat liver microsomes, 0.5 mg/mL protein
Method: as §1, §2, §3, §4, §5, §6, §7, §8, §9

[3] = molecular target: His-tagged Human KRAS^G12D (Homo sapiens (Human), UniProt P01116, G12D); assay: HTRF KRAS G12D GTP binding assay; conditions: displacement of GTP-Red tracer
NCI-H727 = assay: Cell proliferation assay (CellTiterGlo), NCI-H727; format: cell-based; conditions: Homo sapiens, NCI-H727, 72 hours
Method: (§10) A cell proliferation assay was used to evaluate inhibition by exemplary compounds. Proliferation assays used human tissue derived cancer cell lines, for example, AsPC-1 (Cobioer, CBP60546), GP2D (Cobioer, CBP60683), NCI-H358 (Cobioer, CBP60544), NCI-H727 (Cobioer, CBP60182), MKN-1 (Cobioer, CBP60486), HCT116 (ATCC, CCL-247), and HT-29 (Cobioer, CBP60011). Signal reflecting cell proliferation was detected with the CellTiterGlo kit (Promega, G7573).
(§11) Cells were cultured in the growth phase and 3×10^3 cells per well were plated in a 96-well plate (Greiner, 655090). Cells were incubated 24 hours at 37° C. and 5% carbon dioxide in a humidity chamber. Serially diluted exemplary compounds were added to the plate which was then incubated for another 72 hours. Plates were brought to room temperature and an equal volume of CellTiterGlo reagent was added. After 10 minutes incubation at room temperature to stabilize the signal, the luminescent signal was measured on the VICTOR Nivo multimode plate reader according to the manufacturer's instructions. The signal was converted to percent inhibition using the following formula: […]
(§12) (where the “Maximum Signal” are wells containing DMSO without inhibitor; the “Minimum Signal” are signal of wells recorded at Day 0 prior to commencement of the experiment; the “Test compound signal” are wells containing inhibitor at established concentrations).
(§13) IC50 was determined by fitting percent inhibition at each inhibitor concentration to the four-parameter nonlinear logistic equation using GraphPad Prism. IC50 (nM) values of selected compounds are depicted in Table 4. “-”: means without measuring; and “ND” means not detected.

AsPC-1 = assay: Cell proliferation assay (CellTiterGlo), AsPC-1; format: cell-based; conditions: Homo sapiens, ASPC1, AsPC-1, 72 hours
Method: as §10, §11, §12, §13

NCI-H358 = assay: Cell proliferation assay (CellTiterGlo), NCI-H358; format: cell-based; conditions: Homo sapiens, NCI-H358, 72 hours
Method: as §10, §11, §12, §13

[4] = Microsomal stability assay, human liver microsomes; format: in vitro ADME; conditions: pooled human liver microsomes, 0.5 mg/mL protein
Method: as §1, §2, §3, §4, §5, §6, §7, §8, §9

GP2D = assay: Cell proliferation assay (CellTiterGlo), GP2D; format: cell-based; conditions: Homo sapiens, 72 hours
Method: as §10, §11, §12, §13

HCT-116 = assay: Cell proliferation assay (CellTiterGlo), HCT-116; format: cell-based; conditions: Homo sapiens, HCT-116, 72 hours
Method: as §10
(§14) Cells were cultured in the growth phase and 3×10^3 cells per well were plated in a 96-well plate (Greiner, 655090). Cells were incubated 24 hours at 37° C. and 5% carbon dioxide in a humidity chamber. […] After 10 minutes incubation at room temperature to stabilize the signal, the luminescent signal was measured on the VICTOR Nivo multimode plate reader according to the manufacturer's instructions. […]
as §12
(§15) IC50 was determined by fitting percent inhibition at each inhibitor concentration to the four-parameter nonlinear logistic equation using GraphPad Prism. […] “-”: means without measuring; and “ND” means not detected.

HT-29 = assay: Cell proliferation assay (CellTiterGlo), HT-29; format: cell-based; conditions: Homo sapiens, HT-29, 72 hours
Method: as §10, §14, §12, §15

MKN-1 = assay: Cell proliferation assay (CellTiterGlo), MKN-1; format: cell-based; conditions: Homo sapiens, MKN-1, 72 hours
Method: as §10, §11, §12, §13

[5] = system: phosphorylation of p-ERK1/2 in MKN-1; assay: Cellular phospho-ERK inhibition, MKN-1; format: cell-based; conditions: Homo sapiens; MKN-1, 4 hours
Method: (§16) The ability of exemplary test compounds to inhibit the phosphorylation of p-ERK1/2, which is the downstream effector of KRas in multiple human cancer cell lines such as AsPC-1 (Cobioer, CBP60546), GP2D (Cobioer, CBP60683), NCI-H358 (Cobioer, CBP60544), NCI-H727 (Cobioer, CBP60182), MKN-1 (Cobioer, CBP60486), HCT116 (ATCC, CCL-247), and HT-29 (Cobioer, CBP60011), was measured. Signal reflecting cell proliferation was detected with the Advanced phospho-ERK (Thr202/Tyr204) cellular kit (Cisbio, 64AERPEG).
(§17) Cells were cultured in the growth phase and 3×10^4 cells per well were plated in a 96-well plate (Corning, 3599). Cells were incubated 24 hours at 37° C. and 5% carbon dioxide in a humidity chamber. Serially diluted exemplary compounds were added to the cell plate which was then incubated for another 4 hours in a humid tray at 37° C. and 5% carbon dioxide. 1× Lysis buffer (Cisbio, 64AERPEG) was prepared at ambient temperature. Cell culture medium was removed, then lysis buffer (50 μL/well) was added to the cell plate and the plate was incubated at room temperature for 30 minutes on a shaker. […] The luminescent signal was measured on the VICTOR Nivo multimode plate reader according to the manufacturer's instructions. […]
(§18) IC50 was determined by fitting percent inhibition at each inhibitor concentration to the four-parameter nonlinear logistic equation using GraphPad Prism. […]

[6] = system: phosphorylation of p-ERK1/2 in NCI-H358; assay: Cellular phospho-ERK inhibition, NCI-H358; format: cell-based; conditions: Homo sapiens; NCI-H358, 4 hours
Method: as §16, §17, §18

[7] = system: phosphorylation of p-ERK1/2 in AsPC-1; assay: Cellular phospho-ERK inhibition, AsPC-1; format: cell-based; conditions: Homo sapiens, ASPC1; AsPC-1, 4 hours
Method: as §16, §17, §18

[8] = system: phosphorylation of p-ERK1/2 in HCT-116; assay: Cellular phospho-ERK inhibition, HCT-116; format: cell-based; conditions: Homo sapiens; HCT-116, 4 hours
Method: as §16, §17, §18

[9] = system: phosphorylation of p-ERK1/2 in NCI-H727; assay: Cellular phospho-ERK inhibition, NCI-H727; format: cell-based; conditions: Homo sapiens; NCI-H727, 4 hours
Method: as §16, §17, §18

[10] = system: phosphorylation of p-ERK1/2 in GP2D; assay: Cellular phospho-ERK inhibition, GP2D; format: cell-based; conditions: Homo sapiens, 4 hours
Method: as §16, §17, §18

[11] = system: phosphorylation of p-ERK1/2 in HT-29; assay: Cellular phospho-ERK inhibition, HT-29; format: cell-based; conditions: Homo sapiens; HT-29, 4 hours
Method: as §16, §17, §18

Sequence of His-tagged Human KRAS^G12D (P01116-2 other isoform, or with tags, fused parts or gaps G12D): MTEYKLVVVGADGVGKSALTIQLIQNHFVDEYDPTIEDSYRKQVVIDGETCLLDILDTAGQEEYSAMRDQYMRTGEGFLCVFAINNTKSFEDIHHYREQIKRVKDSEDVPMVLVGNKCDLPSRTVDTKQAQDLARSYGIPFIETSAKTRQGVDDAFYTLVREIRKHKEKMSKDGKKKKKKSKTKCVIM

Row | CLint scaled at 1 μM [1] [mL/min/kg] | CLint scaled at 1 μM [2] [mL/min/kg] | IC50 [3] [nM] | IC50 (NCI-H727) [nM] | IC50 (AsPC-1) [nM] | IC50 (NCI-H358) [nM] | CLint scaled at 1 μM [4] [mL/min/kg] | IC50 (HCT-116) [nM] | IC50 (HT-29) [µM] | IC50 (MKN-1) [nM] | IC50 [5] [nM] | IC50 [6] [nM] | IC50 [7] [nM] | IC50 [8] [nM] | IC50 [9] [nM] | IC50 [10] [nM] | IC50 [11] [nM] | Structure (SMILES) | IC50 (GP2D) [nM]
1 | 255 | 29.2 | 3.1 | 13.7 | 21.6 | 23.7 | 26.3 | – | – | – | – | – | – | – | – | – | – | CCc1c(F)ccc2cc(O)cc(-c3ncc4c(N5CCC[C@]6(CCO6)C5)nc(OCC5(CN(C)C)CC5)nc4c3F)c12 [Compound 34a] | 1.4
2 | 671 | 46.4 | 6.9 | 17 | 16 | 18.7 | 42.5 | – | – | – | – | – | – | – | – | – | – | CCc1c(F)ccc2cc(O)cc(-c3ncc4c(N5CCC[C@]6(CCO6)C5)nc(OCC5(CN6CCCC6)CC5)nc4c3F)c12 [Compound 10a] | 1.8
3 | 1180 | 111 | – | 130 | 161 | 152 | 46 | 1430 | 7.73 | 144 | – | – | – | – | – | – | – | CCc1c(F)ccc2cc(O)cc(-c3ncc4c(N5CCCC(C)(O)C5)nc(OC[C@@]56CCCN5C[C@H](F)C6)nc4c3F)c12 (stereo partly drawn) [Compound A1, reference compound] | 15.7
4 | – | – | – | – | – | – | – | – | – | – | 8.25 | 83.7 | 17.4 | 173 | 110 | 3.36 | > 1000 | CCc1c(F)ccc2cc(O)cc(-c3ncc4c(N5CCCC6(CCO6)C5)nc(OC[C@@]56CCCN5C[C@H](F)C6)nc4c3F)c12 (stereo partly drawn) [Compound 25] | –
